# Reference: ChEMBL document CHEMBL1146569, “The pterocellins, novel bioactive alkaloids from the marine bryozoan Pterocella vesiculosa” (J Nat Prod, 2003)
# Key:
# Type in all cases: functional
# [1] = tested on: 786-0; assay: Growth inhibition of human 786-0 cells
# [2] = tested on: DU-145; assay: Growth inhibition of human DU145 cells; settings: for CC50: read-out: LC50 (the source's name)
# [3] = tested on: Amorphotheca resinae; assay: Antimicrobial activity against Cladosporium resinae assessed per disk
# [4] = tested on: SF-295; assay: Growth inhibition of human SF295 cells
# [5] = tested on: COLO 205; assay: Growth inhibition of human COLO205 cells; settings: for CC50: read-out: LC50 (the source's name)
# [6] = tested on: SF-268; assay: Growth inhibition of human SF268 cells
# [7] = tested on: NCI/ADR-RES; assay: Growth inhibition of human NCI/ADR-RES cells; settings: for CC50: read-out: LC50 (the source's name)
# [8] = tested on: NCI-H226; assay: Growth inhibition of human NCI-H226 cells; settings: for CC50: read-out: LC50 (the source's name)
# [9] = tested on: EKVX; assay: Growth inhibition of human EKVX cells; settings: for CC50: read-out: LC50 (the source's name)
# [10] = tested on: HL-60(TB); assay: Growth inhibition of human HL-60(TB) cells; settings: for CC50: read-out: LC50 (the source's name)
# [11] = tested on: HT-29; assay: Growth inhibition of human HT-29 cells
# [12] = tested on: Trichophyton mentagrophytes; assay: Antimicrobial activity against Trichophyton mentagrophytes assessed per disk
# [13] = tested on: SNB-75; assay: Growth inhibition of human SNB75 cells; settings: for CC50: read-out: LC50 (the source's name)
# [14] = tested on: MDA-MB-435; assay: Growth inhibition of human MDA-MB-435 cells; settings: for CC50: read-out: LC50 (the source's name)
# [15] = tested on: SR; assay: Growth inhibition of human SR cells; settings: for CC50: read-out: LC50 (the source's name)
# [16] = tested on: SK-MEL-5; assay: Growth inhibition of human SK-MEL-5 cells; settings: for CC50: read-out: LC50 (the source's name)
# [17] = tested on: HCT-116; assay: Growth inhibition of human HCT116 cells
# [18] = tested on: UACC-62; assay: Growth inhibition of human UACC62 cells
# [19] = tested on: SNB-19; assay: Growth inhibition of human SNB19 cells; settings: for CC50: read-out: LC50 (the source's name)
# [20] = tested on: ACHN; assay: Growth inhibition of human ACHN cells; settings: for CC50: read-out: LC50 (the source's name)
# [21] = tested on: Malme-3M; assay: Growth inhibition of human MALME-3M cells; settings: for CC50: read-out: LC50 (the source's name)
smiles,measurement,setting,value
COc1cn2c(cc1=O)C(=O)c1ccnc(Cc3ccccc3)c1-2 [PTEROCELLIN B],GI50,[1],1.8 µM
same,LC50 (concentration killing 50% of cells),[1],17.9 µM
same,TGI,[1],5 µM
same,GI50,[2],0.2 µM
same,TGI,[2],0.3 µM
same,CC50,[2],0.6 µM
same,MIC,[3],>60 µg
same,GI50,[4],0.3 µM
same,LC50 (concentration killing 50% of starting cells),[4],4 µM
same,TGI,[4],1.6 µM
same,GI50,[5],0.7 µM
same,TGI,[5],2.3 µM
same,CC50,[5],6.1 µM
same,GI50,[6],1.7 µM
same,LC50 (concentration killing 50% of cells),[6],21.5 µM
same,TGI,[6],5.5 µM
same,GI50,[7],1.4 µM
same,TGI,[7],3.9 µM
same,CC50,[7],15.3 µM
same,GI50,[8],1.4 µM
same,TGI,[8],3.5 µM
same,CC50,[8],8.4 µM
same,GI50,[9],1.4 µM
same,TGI,[9],3.8 µM
same,CC50,[9],10.7 µM
same,GI50,[10],1 µM
same,TGI,[10],5.1 µM
same,CC50,[10],43.5 µM
same,GI50,[11],0.5 µM
same,LC50,[11],27.3 µM
same,TGI,[11],3.2 µM
same,MIC,[12],3.9 µg
same,GI50,[13],0.2 µM
same,TGI,[13],0.9 µM
same,CC50,[13],5.3 µM
same,GI50,[14],0.2 µM
same,TGI,[14],0.3 µM
same,CC50,[14],0.6 µM
same,GI50,[15],0.2 µM
same,TGI,[15],1.3 µM
same,CC50,[15],3.7 µM
same,GI50,[16],0.1 µM
same,TGI,[16],0.3 µM
same,CC50,[16],0.5 µM
same,GI50,[17],0.5 µM
same,LC50,[17],4 µM
same,TGI,[17],1.6 µM
same,GI50,[18],0.2 µM
same,LC50 (50% cell kill),[18],4.1 µM
same,TGI,[18],0.6 µM
same,GI50,[19],1.6 µM
same,TGI,[19],3.3 µM
same,CC50,[19],7 µM
same,GI50,[20],1.1 µM
same,TGI,[20],2.9 µM
same,CC50,[20],7.8 µM
same,GI50,[21],0.03 µM
same,TGI,[21],0.1 µM
same,CC50,[21],0.3 µM
COc1cn2c(cc1=O)C(=O)c1ccnc(CC(C)C)c1-2 [PTEROCELLIN A],GI50,[1],1.3 µM
same,LC50 (concentration killing 50% of cells),[1],24.4 µM
same,TGI,[1],4.7 µM
same,GI50,[2],0.7 µM
same,TGI,[2],2 µM
same,CC50,[2],4.7 µM
same,MIC,[3],>60 µg
same,GI50,[4],1.3 µM
same,LC50 (concentration killing 50% of starting cells),[4],5.2 µM
same,TGI,[4],2.6 µM
same,GI50,[5],1.6 µM
same,TGI,[5],3.7 µM
same,CC50,[5],8.4 µM
same,GI50,[6],2.1 µM
same,LC50 (concentration killing 50% of cells),[6],26.7 µM
same,TGI,[6],6.7 µM
same,GI50,[7],2.1 µM
same,TGI,[7],4.9 µM
same,CC50,[7],> 100 µM
same,GI50,[8],1.7 µM
same,TGI,[8],3.5 µM
same,CC50,[8],7.4 µM
same,GI50,[9],2.1 µM
same,TGI,[9],5.8 µM
same,CC50,[9],23.6 µM
same,GI50,[10],3 µM
same,TGI,[10],> 100 µM
same,CC50,[10],> 100 µM
same,GI50,[11],1.3 µM
same,LC50,[11],> 100 µM
same,TGI,[11],7.2 µM
same,MIC,[12],3.9 µg
same,GI50,[13],1.4 µM
same,TGI,[13],3.9 µM
same,CC50,[13],56.8 µM
same,GI50,[14],0.2 µM
same,TGI,[14],0.3 µM
same,CC50,[14],0.6 µM
same,GI50,[15],2 µM
same,TGI,[15],> 100 µM
same,CC50,[15],> 100 µM
same,GI50,[16],0.2 µM
same,TGI,[16],0.3 µM
same,CC50,[16],0.6 µM
same,GI50,[17],1.1 µM
same,LC50,[17],11.2 µM
same,TGI,[17],2.5 µM
same,GI50,[18],1.4 µM
same,LC50 (50% cell kill),[18],6 µM
same,TGI,[18],2.9 µM
same,GI50,[19],2.9 µM
same,TGI,[19],11.4 µM
same,CC50,[19],60 µM
same,GI50,[20],2.3 µM
same,TGI,[20],9.1 µM
same,CC50,[20],> 100 µM
same,GI50,[21],0.1 µM
same,TGI,[21],0.3 µM
same,CC50,[21],0.8 µM
